Test results: patent US8518953B2, “Aminopyrimidines useful as inhibitors of protein kinases” (Vertex Pharmaceuticals Incorporated, priority 2007, dated 2013)

Tested on: rats subjected to MCAO
Assay: Post Stroke Recovery MCAO Model: Gridwalk
Format: in vivo, rat
Details: 7 and 14 days after stroke
Source text: Adult male Wistar rats are pre-trained on a battery of behavioral tests including: tray reach, […], forelimb asymmetry (cylinder bracing), forelimb inhibition (swim test) (see below for detailed description of tests). Following pre-stroke behavioral assessment the rats receive surgery during which a stroke is induced. The rats are pseudo-randomly divided into 5 equal groups (n=12) ensuring an equal number of right and left strokes within each treatment group. The first group receives sham surgery with vehicle as treatment. Administration of the test compound and vehicle (dose, route, timing) is determined by the sponsor. The core body temperature is maintained at 37° C. (+/-1°). Following surgery all animals are behaviorally assessed 1, 7, and 14 d post-stroke. At the conclusion of behavioral assessment all rats undergo an MRI to determine infarct volume. […] Rectal temperature is monitored and maintained at 37 C+/-1° C. for the duration of the surgery and until the rat is awake and mobile (approximately 3 hr). […] Forelimb and hindlimb coordination are measured using an apparatus that consists of two Plexiglas panels 1 m long and 25 cm wide (5 mm thick) with holes drilled 1 cm apart along one long edge. […]

Cc1nc(-c2ccccc2Cl)nc(Nc2n[nH]c3ncc(F)cc23)c1C [Compound I-1, N-(2-(2-chlorophenyl)-5,6-dimethylpyrimidin-4-yl)-5-fluoro-1H-pyrazolo[3,4-b]pyridin-3-amine]
deficit in gridwalk: significantly ameliorated this deficit
